Measurements: ChEMBL document CHEMBL4308906, “Design and synthesis of selective CYP1B1 inhibitor via dearomatization of α-naphthoflavone” (Bioorg Med Chem, 2019)
Converted amounts (≈) assume the structure as drawn.

How the values were obtained:
Cytochrome P450 1B1 [1] = target: T1, Cytochrome P450 1B1 (Homo sapiens, UniProt Q16678); experiment: Inhibition of human recombinant CYP1B1 using 7-ethoxyresorufin as substrate assessed as percent enzyme activity at 1 uM after 30 mins in presence of NADPH by EROD assay relative to control; parameters: scale not given: the % may be the effect or the level left; details: read-out: Activity
T1 sequence (Q16678 whole entry): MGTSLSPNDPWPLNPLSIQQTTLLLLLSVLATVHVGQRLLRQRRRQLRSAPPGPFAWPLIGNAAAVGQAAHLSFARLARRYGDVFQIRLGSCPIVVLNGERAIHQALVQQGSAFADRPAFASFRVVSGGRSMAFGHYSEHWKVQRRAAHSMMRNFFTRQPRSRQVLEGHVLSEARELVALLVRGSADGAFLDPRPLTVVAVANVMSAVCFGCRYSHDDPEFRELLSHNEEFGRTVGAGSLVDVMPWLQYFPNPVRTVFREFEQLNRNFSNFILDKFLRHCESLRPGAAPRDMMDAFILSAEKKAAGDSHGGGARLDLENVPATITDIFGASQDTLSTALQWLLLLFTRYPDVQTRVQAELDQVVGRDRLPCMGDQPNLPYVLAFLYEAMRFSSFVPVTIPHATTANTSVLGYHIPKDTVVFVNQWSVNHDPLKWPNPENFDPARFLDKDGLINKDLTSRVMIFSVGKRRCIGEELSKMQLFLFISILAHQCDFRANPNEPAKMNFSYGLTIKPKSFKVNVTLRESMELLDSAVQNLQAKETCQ

Cytochrome P450 1A1 = target: T2, Cytochrome P450 1A1 (Homo sapiens, UniProt P04798); experiment: Inhibition of human recombinant CYP1A1 using 7-ethoxyresorufin as substrate after 15 mins in presence of NADPH by EROD assay; type: ADME
T2 sequence (P04798 whole entry): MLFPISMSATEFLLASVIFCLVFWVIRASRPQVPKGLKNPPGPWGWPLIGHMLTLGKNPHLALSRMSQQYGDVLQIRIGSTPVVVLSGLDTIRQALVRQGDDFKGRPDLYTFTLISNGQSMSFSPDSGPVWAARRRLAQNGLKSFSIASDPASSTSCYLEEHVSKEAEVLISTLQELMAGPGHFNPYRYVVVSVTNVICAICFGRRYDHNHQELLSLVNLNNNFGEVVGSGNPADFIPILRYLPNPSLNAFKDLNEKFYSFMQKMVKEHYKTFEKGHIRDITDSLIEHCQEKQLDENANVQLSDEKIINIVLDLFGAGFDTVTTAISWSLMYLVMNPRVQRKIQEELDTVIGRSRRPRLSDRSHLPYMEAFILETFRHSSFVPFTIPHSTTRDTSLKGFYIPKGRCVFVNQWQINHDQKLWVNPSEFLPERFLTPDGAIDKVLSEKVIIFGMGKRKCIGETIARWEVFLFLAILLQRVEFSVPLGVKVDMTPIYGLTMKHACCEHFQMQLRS

Homo sapiens [2] = species: Homo sapiens; experiment: Selectivity ratio of IC50 for human recombinant CYP1A1 to IC50 for human recombinant CYP1B1
Cytochrome P450 1B1 [3] = target: T1, Cytochrome P450 1B1; experiment: Binding affinity to human C-terminal 4His-tagged CYP1B1 expressed in Escherichia coli DH5alpha assessed as spectral dissociation constant by spectrophotometric analysis; details: read-out: Ks
Cytochrome P450 1B1 [4] = target: T1, Cytochrome P450 1B1; experiment: Inhibition of human recombinant CYP1B1 using 7-ethoxyresorufin as substrate after 30 mins in presence of NADPH by EROD assay
CYP1A1 = target: T3, CYP1A1 (Homo sapiens, UniProt P04798); experiment: Inhibition of human recombinant CYP1A1 using 7-ethoxyresorufin as substrate assessed as percent enzyme activity at 1 uM after 15 mins in presence of NADPH by EROD assay relative to control; type: ADME; parameters: scale not given: the % may be the effect or the level left; details: recombinant CYP1A1, probe 7-ethoxyresorufin, read-out: Activity
T3 sequence (P04798 whole entry): T2 sequence (P04798 whole entry)

CYP1A2 = target: T4, CYP1A2 (Homo sapiens, UniProt P05177); experiment: Inhibition of human recombinant CYP1A2 using 7-ethoxyresorufin as substrate assessed as percent enzyme activity at 1 uM after 30 mins in presence of NADPH by EROD assay relative to control; type: ADME; parameters: scale not given: the % may be the effect or the level left; details: recombinant CYP1A2, probe 7-ethoxyresorufin, read-out: Activity
T4 sequence (P05177 whole entry): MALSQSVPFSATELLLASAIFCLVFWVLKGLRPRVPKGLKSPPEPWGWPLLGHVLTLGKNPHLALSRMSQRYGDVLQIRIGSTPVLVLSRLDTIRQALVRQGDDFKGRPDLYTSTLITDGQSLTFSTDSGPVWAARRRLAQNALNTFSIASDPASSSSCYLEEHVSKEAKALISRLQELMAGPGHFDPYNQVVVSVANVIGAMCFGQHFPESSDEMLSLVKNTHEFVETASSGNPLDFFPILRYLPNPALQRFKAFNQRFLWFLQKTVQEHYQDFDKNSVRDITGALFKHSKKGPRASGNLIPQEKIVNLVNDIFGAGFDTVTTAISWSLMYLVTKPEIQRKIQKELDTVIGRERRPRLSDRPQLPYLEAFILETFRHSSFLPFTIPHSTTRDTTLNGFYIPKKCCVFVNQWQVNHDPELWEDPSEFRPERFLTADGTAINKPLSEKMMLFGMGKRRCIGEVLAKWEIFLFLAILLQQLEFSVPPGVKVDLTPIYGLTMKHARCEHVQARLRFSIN

Homo sapiens [5] = species: Homo sapiens; experiment: Selectivity ratio of IC50 for human recombinant CYP1A2 to IC50 for human recombinant CYP1B1
Cytochrome P450 1A2 = target: T5, Cytochrome P450 1A2 (Homo sapiens, UniProt P05177); experiment: Inhibition of human recombinant CYP1A2 using 7-ethoxyresorufin as substrate after 30 mins in presence of NADPH by EROD assay; type: ADME
T5 sequence (P05177 whole entry): T4 sequence (P05177 whole entry)

[6] = Aqueous solubility of compound in 9:1 PBS/ethanol buffer by shake flask method; type: physicochemical

Row | Compound | activity at 0.5 h, 1 µM (Cytochrome P450 1B1 [1]) [%] | IC50 (Cytochrome P450 1A1) [µM] | Ratio IC50 (Homo sapiens [2]) | Kd (Cytochrome P450 1B1 [3]) [µM] | IC50 (Cytochrome P450 1B1 [4]) [µM] | activity at 0.25 h, 1 µM (CYP1A1) [%] | activity at 0.5 h, 1 µM (CYP1A2) [%] | Ratio IC50 (Homo sapiens [5]) | IC50 (Cytochrome P450 1A2) [µM] | solubility thermodynamic [6] [µM]
1 | O=c1cc([C@H]2CC[C@@H](S)CC2)oc2c1ccc1ccccc12 | 0.5 | 0.0762 | 1.97 | 9.4 | 0.0388 | 3.9 | – | – | – | –
2 | CC(=O)S[C@H]1CC[C@@H](c2cc(=O)c3ccc4ccccc4c3o2)CC1 | -1.3 | 0.065 | 2.7 | 4 | 0.0243 | 3.8 | 42.7 | – | – | –
3 | [N-]=[N+]=NCC1CCC(c2cc(=O)c3ccc4ccccc4c3o2)CC1 (mixture of isomers) | 2.2 | 0.216 | 9.2 | 3.9 | 0.0235 | 6.3 | 22.3 | 18.5 | 0.433 | –
4 | O=c1cc(C2CCCCC2)oc2c1ccc1ccccc12 | 25.4 | – | – | 5.9 | 0.54 | 51.5 | 51.8 | – | – | 9.65 (≈ 2.69 µg/mL)
5 | [N-]=[N+]=N[C@H]1CC[C@H](c2cc(=O)c3ccc4ccccc4c3o2)CC1 | -1.8 | 1.04 | 7.7 | 5.4 | 0.135 | 39.5 | 46.5 | 8.8 | 1.19 | –
6 | C=C=C[C@H]1CC[C@@H](c2cc(=O)c3ccc4ccccc4c3o2)CC1 | 3.1 | 0.033 | 0.48 | 25.4 | 0.0681 | 5.5 | 4.3 | – | – | –
7 | O=c1cc(-c2ccc(O)cc2)oc2c1ccc1ccccc12 | 3.7 | 0.043 | 0.99 | – | 0.0434 | 6.3 | 10.4 | 21 | 0.909 | –
8 | [N-]=[N+]=Nc1ccc(-c2cc(=O)c3ccc4ccccc4c3o2)cc1 | -0.5 | 0.0095 | 3.6 | 0.9 | 0.0026 | 2.3 | -13.6 | 35.6 | 0.0938 | < 1
9 | C=C=C[C@H]1CC[C@H](c2cc(=O)c3ccc4ccccc4c3o2)CC1 | -0.4 | 0.0136 | 1.02 | 2.4 | 0.0134 | 3 | -4.5 | 2.7 | 0.0364 | –
10 | O=c1cc([C@H]2CC[C@H](S)CC2)oc2c1ccc1ccccc12 | 1.8 | 0.146 | 3.6 | 8.9 | 0.0403 | 1.3 | 0.6 | 17.1 | 0.689 | –
11 | [N-]=[N+]=Nc1cccc(-c2cc(=O)c3ccc4ccccc4c3o2)c1 | 0.7 | 0.0271 | 15.5 | 0.8 | 0.0018 | 1.4 | 6.9 | 42.8 | 0.0747 | –
12 | [N-]=[N+]=N[C@H]1CC[C@@H](c2cc(=O)c3ccc4ccccc4c3o2)CC1 | -15.3 | 0.525 | 120 | 2.6 | 0.0044 | 39.6 | 29.6 | 153 | 0.667 | 2.67 (≈ 0.853 µg/mL)
13 | CC(=O)S[C@H]1CC[C@H](c2cc(=O)c3ccc4ccccc4c3o2)CC1 | -4.7 | 0.0159 | 0.54 | 6.7 | 0.0294 | 1.1 | 45.4 | 33.7 | 0.991 | –
14 | [N-]=[N+]=NC1CCCC(c2cc(=O)c3ccc4ccccc4c3o2)C1 (mixture of isomers) | -4 | – | – | – | 0.0903 | 36.1 | 42.5 | – | – | –
15 | O=c1cc(C2CCCC(S)C2)oc2c1ccc1ccccc12 (mixture of isomers) | -2.5 | 0.134 | 2.02 | 8.1 | 0.0661 | 0 | – | – | – | –
16 | CC1CCC(c2cc(=O)c3ccc4ccccc4c3o2)CC1 (mixture of isomers) | 23.9 | – | – | 5.7 | – | 50.2 | 63 | – | – | –
17 | NC1CCCC(c2cc(=O)c3ccc4ccccc4c3o2)C1 (mixture of isomers) | 64.7 | – | – | 2.9 | – | 80.9 | 44.5 | – | – | –
